Biological target: T1, CDK9/Cyclin T1 (Homo sapiens, UniProt P50750)
T1 construct: made in house; host or cells: HEK293 cells, recombinant adenovirus
Test: Kinase assay using CDK9/Cyclin T1
Assay type: biochemical
Conditions: read-out: CDK9 (activity range)
From the text: Cloning of CDK9 and Cyclin T1:
Both cDNA fragments were cloned by PCR into pDONR201 vectors using the gateway recombination system (Invitrogen) according to the manufacturer's recommendations. The fragments were subcloned into a gateway-adapted shuttle vector (pPM7) for production of recombinant adenovirus. All plasmids were verified by restriction digests and sequencing analysis.
Expression and Purification of CDK9/Cyclin T1 Proteins:
Expression and purification was in principle performed as described by Cotten et al. (M. Cotten et al., Nucleic acids research, 2003, 31(28), 128).
Kinase Assay Using CDK9/Cyclin T1:
Kinase assays were performed in principle as described by Cotten et al. (M. Cotten et al., Nucleic acids research, 2003, 31(28), 128).

T1 sequence (P50750 whole entry): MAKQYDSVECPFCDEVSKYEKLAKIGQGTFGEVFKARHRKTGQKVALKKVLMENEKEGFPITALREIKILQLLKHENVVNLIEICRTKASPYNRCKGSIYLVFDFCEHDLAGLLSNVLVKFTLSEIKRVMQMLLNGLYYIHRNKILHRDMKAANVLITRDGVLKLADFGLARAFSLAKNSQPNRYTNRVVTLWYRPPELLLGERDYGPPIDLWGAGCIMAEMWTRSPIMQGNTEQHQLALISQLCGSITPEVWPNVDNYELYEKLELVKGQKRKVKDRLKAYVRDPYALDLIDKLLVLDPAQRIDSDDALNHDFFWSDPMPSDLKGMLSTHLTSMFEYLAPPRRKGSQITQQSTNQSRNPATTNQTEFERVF
T1 sequence (O60563 whole entry partner): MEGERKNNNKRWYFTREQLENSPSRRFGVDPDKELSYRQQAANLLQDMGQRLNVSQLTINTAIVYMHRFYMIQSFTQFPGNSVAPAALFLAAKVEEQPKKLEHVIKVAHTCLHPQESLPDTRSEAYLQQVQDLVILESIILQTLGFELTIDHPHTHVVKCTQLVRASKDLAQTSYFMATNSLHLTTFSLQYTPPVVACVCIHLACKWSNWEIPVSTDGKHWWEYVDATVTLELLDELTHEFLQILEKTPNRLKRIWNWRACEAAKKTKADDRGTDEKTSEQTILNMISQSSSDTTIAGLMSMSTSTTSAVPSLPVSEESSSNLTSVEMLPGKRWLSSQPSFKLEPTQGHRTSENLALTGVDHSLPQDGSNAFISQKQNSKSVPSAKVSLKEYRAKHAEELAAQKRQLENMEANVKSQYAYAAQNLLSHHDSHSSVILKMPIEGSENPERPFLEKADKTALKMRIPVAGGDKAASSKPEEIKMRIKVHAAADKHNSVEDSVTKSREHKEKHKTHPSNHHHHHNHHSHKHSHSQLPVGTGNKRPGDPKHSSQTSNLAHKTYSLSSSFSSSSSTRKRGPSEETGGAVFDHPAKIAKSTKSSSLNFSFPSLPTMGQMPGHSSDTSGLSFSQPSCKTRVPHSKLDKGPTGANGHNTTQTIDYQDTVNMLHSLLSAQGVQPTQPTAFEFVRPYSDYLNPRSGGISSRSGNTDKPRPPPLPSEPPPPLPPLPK

`O=C(NC1CCCC1)c1ccc(-c2cc(Nc3ccc(NC(=O)[C@@H]4CCCCN4)cc3)ncn2)cc1` [(180)] was tested, and the IC50 was 1 to 10 µM.
With `O=C(Nc1ccc(Nc2cc(-c3ccccc3CO)ncn2)cc1)[C@@H]1CCCCN1` [(170)] the IC50 was 1 to 10 µM.
Molecule `COc1ccc(-c2cc(Nc3ccc(NC(=O)[C@@H]4CCCCN4)cc3)ncn2)cc1` [(167)] has an IC50 of 1 to 10 µM.
In the case of `COc1ccccc1-c1cc(Nc2ccc(NC(=O)c3cc4ccccc4oc3=O)cc2)ncn1` [(129)], the IC50 is reported as 10 to 250 µM.
With `CC(=O)c1cccc(-c2cc(Nc3ccc(NC(=O)[C@@H]4CCCCN4)cc3)ncn2)c1` [(179)] the IC50 was 10 to 250 µM.
`O=C(Nc1ccc(Nc2cc(-c3ccc(OCc4ccccc4)cc3)ncn2)cc1)[C@@H]1CCCCN1` [(173)] showed an IC50 of 10 to 250 µM.
With `COc1ccccc1-c1cc(Nc2ccc(N)cc2)nc(C)n1` [(204)] the IC50 was 10 to 250 µM.
Molecule `COc1ccccc1-c1cc(Nc2ccc(NC(=O)c3n[nH]c4ccccc34)cc2)ncn1` [(141)] has an IC50 of 1 to 10 µM.
`Cc1ccc(Nc2cc(-c3ccc(CO)cc3)ncn2)cc1NS(C)(=O)=O` [(175)] was tested, and the IC50 was 1 to 10 µM.
With `Cc1ccc(Nc2cc(-c3ccccc3CO)ncn2)cc1NS(C)(=O)=O` [(166)] the IC50 was 1 to 10 µM.
Molecule `NC1CCCCC1NC(=O)c1ccc(Nc2cc(-c3cnc4ccccc4c3)ncn2)cc1` (stereo not shown) [(212)] has an IC50 of 10 to 250 µM.
`CN(C)Cc1cccc(-c2cc(Nc3ccc(NC(=O)[C@@H]4CCCCN4)cc3)ncn2)c1` [(211)] gave an IC50 of 1 to 10 µM.
For `NC1CCCCC1NC(=O)c1ccc(Nc2cc(-c3ccc(OCc4ccccc4)cc3)ncn2)cc1` (stereo not shown) [(208)], the IC50 was 10 to 250 µM.
Molecule `COc1ccccc1-c1ncnc(Nc2ccc(NC(=O)c3ccc(N)cc3)cc2)c1C` [(149)] has an IC50 of 10 to 250 µM.
Work on `O=C(Nc1ccc(Nc2cc(-c3cccc(CO)c3)ncn2)cc1)[C@@H]1CCCCN1` [(193)] yielded an IC50 of 1 to 10 µM.
Work on `Nc1cccc(-c2cc(Nc3ccc(C(=O)NC4CCCCC4N)cc3)ncn2)c1` (stereo not shown) [(206)] yielded an IC50 of 1 to 10 µM.
For `COc1ncc(-c2cc(Nc3ccc(C(=O)N[C@@H]4CCCC[C@H]4N)cc3)ncn2)cn1` (racemic) [(213)], the IC50 was 10 to 250 µM.
`CS(=O)(=O)Nc1cccc(-c2cc(Nc3ccc(NC(=O)[C@@H]4CCCCN4)cc3)ncn2)c1` [(178)] gave an IC50 of 0.001 to 1 µM.
In the case of `COCc1cccc(-c2cc(Nc3ccc(NC(=O)[C@@H]4CCCCN4)cc3)ncn2)c1` [(203)], the IC50 is reported as 1 to 10 µM.
`COc1ccc(-c2ncnc(Nc3ccc(NC(=O)c4ccc(N)cc4)cc3)c2C)cc1` [(200)] was tested, and the IC50 was 10 to 250 µM.
In the case of `CC(C)(C)C(=O)Nc1ccc(Nc2cc(-c3cccc(C(=O)O)c3)ncn2)cc1` [(75)], the IC50 is reported as 10 to 250 µM.
Molecule `CC(=O)Nc1cccc(-c2cc(Nc3ccc(C(=O)NC4CCCCC4N)cc3)ncn2)c1` (stereo not shown) [(207)] has an IC50 of 1 to 10 µM.
`COC(=O)c1cccc(-c2cc(Nc3ccc(C(=O)N[C@@H]4CCCC[C@H]4N)cc3)ncn2)c1` (racemic) [(201)] showed an IC50 of 1 to 10 µM.
`COCc1ccccc1-c1cc(Nc2ccc(C(=O)NC3CCCCC3N)cc2)ncn1` (stereo not shown) [(210)] was tested, and the IC50 was 1 to 10 µM.
For `COc1ccc(-c2cc(Nc3ccc(NC(=O)[C@@H]4CCCCN4)cc3)ncn2)cn1` [(172)], the IC50 was 1 to 10 µM.
`CC(C)(C)C(=O)Nc1ccc(Nc2cc(-c3ccccc3-c3ccccc3)ncn2)cc1` [(132)] showed an IC50 of 10 to 250 µM.
With `CC(=O)c1ccc(-c2cc(Nc3ccc(NC(=O)[C@@H]4CCCCN4)cc3)ncn2)s1` [(191)] the IC50 was 1 to 10 µM.
In the case of `CC(=O)Nc1ccc(-c2cc(Nc3ccc(NC(=O)[C@@H]4CCCCN4)cc3)ncn2)cc1` [(177)], the IC50 is reported as 1 to 10 µM.
`N[C@@H]1CCCC[C@H]1NC(=O)c1ccc(Nc2cc(-c3cccc(O)c3)ncn2)cc1` (racemic) [(194)] showed an IC50 of 1 to 10 µM.
In the case of `CN(C)c1cccc(-c2cc(Nc3ccc(NC(=O)[C@@H]4CCCCN4)cc3)ncn2)c1` [(169)], the IC50 is reported as 1 to 10 µM.
`COc1ccc(-c2cc(Nc3ccc(N)cc3)nc(C)n2)cc1` [(205)] gave an IC50 of 10 to 250 µM.
Work on `CCCS(=O)(=O)Nc1ccc(Nc2ncnc(-c3ccccc3OC)c2C)cc1` [(160)] yielded an IC50 of 10 to 250 µM.
With `COCc1ccccc1-c1cc(Nc2ccc(C)c(NS(C)(=O)=O)c2)ncn1` [(197)] the IC50 was 1 to 10 µM.
Molecule `N#Cc1cccc(-c2cc(Nc3ccc(C(=O)NC4CCCCC4N)cc3)ncn2)c1` (stereo not shown) [(209)] has an IC50 of 1 to 10 µM.

Source: US8084457B2, “Pharmaceutically active 4,6-disubstituted aminopyrimidine derivatives as modulators of protein kinases” (Lead Discovery Center GmbH, priority 2003, dated 2011)
